From US20120130146A1, “CONTINUOUS ADMINISTRATION OF CILENGITIDE IN CANCER TREATMENTS” (Merck Patent GmbH, priority 2009, published 2012)
Entries after “also recorded” stand apart in the source; their conditions may differ.

Key:
[1] = system: recurrent glioblastoma (GBM); assay: Phase IIa trial of cilengitide single agent therapy in patients with recurrent glioblastoma; type: in vivo, human
Protocol: Background: The present phase IIa study was designed to evaluate the safety, toxicity, and clinical activity of the cyclic RGD pentapeptide cilengitide((=cyclo-(Arg-Gly-Asp-DPhe-NMe-Val)), an inhibitor of integrins avβ3 and avβ5, as a single agent at doses of 500 and 2000 mg in patients (pts) with recurrent glioblastoma (GBM).
Methods: in this multicenter, open-label, randomized, uncontrolled study, pts with GBM and measurable disease that had relapsed after previous therapy with temozolomide and radiotherapy were randomized to receive cilengitide at doses of either 500 mg or 2000 mg i.v., 2×/week, until progression. Histopathology diagnosis and MRI imaging were subject to independent blinded review. The primary endpoint was Progression Free Survival (PFS) at 6 months (mths). Secondary endpoints included response, survival, time to disease progression, safety, tolerability and pharmacokinetics.

[2] = system: advanced solid malignancy; assay: Phase I study of continuous infusion EMD 121974 in patients with advanced solid malignancy (safety); type: in vivo
Protocol: Background: Integrins avβ3 and avβ5 are cell-surface receptors that play a significant role in angiogenesis by mediating the ligation signal that allows endothelial cells to attach to the extracellular matrix. These integrins share the binding epitope Arg-Gly-Asp (RGD). EMD is an RGD-containing cyclic pentapeptide. In clinical studies to date, EMD has been administered in an intermittent fashion. […] Methods: EMD was administered as a continuous infusion without break in 4-week cycles. Plasma samples for pharmacokinetic studies were obtained weekly in cycle 1 immediately prior to and 2 hours after infusion bag change. Results: To date 21 patients (15 male/6 female, median age 56, median Karnofsky performance status 90%) have been treated at the following dose levels: 1, 2, 4, 8, 12, 18, and 27 mg/h. […] Non-hematologic toxicities have been limited to grade<2 and include alopecia, anorexia, diarrhea, fatigue, hypokalemia, hyponatremia, hypophosphatemia, insomnia, mucositis, nail changes, nausea, and transaminase elevation. […] Pharmacokinetic analysis has been completed for patients treated at the 12 mg/h dose level and below. […] Conclusions: EMD can be safely administered as a continuous infusion at doses of up to at least 18 mg/h. No single toxicity has been consistently observed.

various brain tumors = conditions: cited from earlier work

CC(C)[C@H]1C(=O)N[C@@H](CCCN=C(N)N)C(=O)NCC(=O)N[C@@H](CC(=O)O)C(=O)N[C@H](Cc2ccccc2)C(=O)N1C [Cilengitide, cyclo-(Arg-Gly-Asp-DPhe-NMeVal)]
median Overall Survival (mOS) ([1]; 500 mg arm): 6.5 mths | pts who received 12 or more cycles of therapy ([1]; 1 cycle = 4 weeks, both dose arms): 12.3% | median Overall Survival (mOS) ([1]; 2000 mg arm): 9.9 mths | PFS rate at 6 mths ([1]; 500 or 2000 mg i.v. 2x/week, all 81 pts): 16.1% | Treatment related NCI CTC grade 3 adverse events ([1]; at 500 mg, in 1 patient each): elevated liver enzymes; also recorded: arthralgia/myalgia | Treatment related NCI CTC grade 3 adverse events ([1]; at 2000 mg, in 1 patient): weight increase/edema | pts still progression-free and on treatment ([1]; at the time the abstract was issued): 7.4% | grade 4 therapy related AEs ([1]; both dose arms): No grade 4 therapy related AEs | single agent activity in recurrent glioblastoma ([1]; human, in vivo): advantagous single agent activity | cerebral hemorrhage ([1]; possibly related either to the drug or to the disease): One CTC grade 2 cerebral hemorrhage | tolerability ([1]; single agent therapy at two dose levels): tolerated well | dose that can be safely administered as a continuous infusion ([2]; human, in vivo): at least 18 mg/h | patient death ([2]; one patient treated at 27 mg/h, after two weeks of therapy): unobserved death of unknown cause | MTD in humans (various brain tumors; human, in vivo): no known MTD | tolerability (various brain tumors; human, in vivo): very well tolerated | response in GBM patients (various brain tumors; some of the GBM patients): indication of response
